Assay results: ChEMBL document CHEMBL1144312, “Synthesis of mono-glucose-branched cyclodextrins with a high inclusion ability for doxorubicin and their efficient glycosylation using Mucor hiemalis endo-beta-N-acetylglucosaminidase” (Bioorg Med Chem Lett, 2005)

What was measured:
[1] = test system: doxorubicin (immobilized ligand, no protein target); assay: Association constant for cyclodextrin binding to immobilized doxorubicin by SPR biosensor
[2] = test system: doxorubicin (immobilized ligand, no protein target); assay: Association rate constant for cyclodextrin binding to immobilized doxorubicin by SPR biosensor
[3] = test system: doxorubicin (immobilized ligand, no protein target); assay: Dissociation rate constant for cyclodextrin binding to immobilized doxorubicin by SPR biosensor

Ka [1]: 220 10E3·1/M
K ass [2]: 4.6 10E3·1/M·1/s
K diss [3]: 2.1 10E-2·1/s
SMILES: OCC1OC2OC3C(CO)OC(OC4C(CO)OC(OC5C(COCCCOc6ccc(O[C@@H]7O[C@@H](CO)[C@@H](O)[C@H](O)[C@@H]7O)cc6)OC(OC6C(CO)OC(OC7C(CO)OC(OC8C(CO)OC(OC1C(O)C2O)C(O)C8O)C(O)C7O)C(O)C6O)C(O)C5O)C(O)C4O)C(O)C3O (stereo partly drawn)
